# US4695576A, “L-N-n-propylpipecolic acid-2,6-xylidide” (priority 1985, dated 1987)
# Read-outs that look alike come from different tables or passages of the source.
# Assays:
# [1] = listed as 5; cited from earlier work
# tissue [2] = conditions: in vivo, cited from earlier work
# ulnar volar nerves = assay: Finger blockade, digital nerve blocks in man; assay type: in vivo; conditions: Concentration 0.25%
# Protocol: ^2 Digital nerve blocks in man. The test solutions were injected to
# block the ulnar volar nerves on the 2nd and 4th fingers of the same
# volunteers who had participated in the intracutaneous wheal tests
# described above. The tests were carried out in a double blind fashion in
# rotating system, so that each solution was used with equal frequency on
# each of the blocked fingers. A total of for injections 1.0 ml per
# injection, was done in each subject. One week later the procedure was
# repeated in the same subjects using the remaining test solutions. This
# method has been described by Dhuner et al. (1972) (for citation see Table
# 2 footnote 1). To measure the efficacy and duration of the blocks, the
# individual fingers were pricked rapidly 10 times with a needle algesimete
# and the number of painful pricks noted. Each finger was tested every five
# minutes until complete recovery. The time of complete anesthesia has been
# called "duration of anesthesia".
# *i.e. the time from injection to complete analgesia?
# **i.e. the number of successful anesthesias of total number of
# anesthesias performed (no anesthesia is possible if the ulnar volar nerve
# are not contacted by the anesthetic).
# tissue [3] = assay: Tissue toxicity limits (Trypan blue test, threshold of tissue irritancy); assay type: in vivo; conditions: Trypan blue test; approximate threshold values of tissue irritancy; racemate
# Description: The toxicity of the homologous series of N-alkylpipecolic acid-2,6-xylidides increases step wise and quickly with the lengthening of the alkyl chain. This is manifest from Table 1 set forth below, which compares racemic mixtures of alkyl homologues having from 1 to 5 carbon atoms.
# *Trypan blue test; Hoppe et al. (1950), 39, 147-151 "Use of Trypan Blue
# and Rabbit Eye Tests For Irritation", J. Amer. Pharm. Assoc. (Scient.
# Ed.), the values are approximate threshold values of tissue irritancy.
# [4] = test system: guinea pig papillary muscle; assay: Force of contraction of guinea pig papillary muscle; assay type: cell-based
# Protocol: (§1) In order to initiate an investigation without the necessity to involve voltage-clamp of the calcium current, the preparations were subject to long depolarizing induced automaticity. If the cells are depolarized from about -50 to about -30 mV the automaticity is dependent on a transmembrane calcium current.
# (§2) Guinea pig papillary tests were carried out according to the recommendation of the "Report of the Subcommittee on Cardiotoxicity of Local Anesthetics" (Leroy D. Vandam, M.D., chairman). […] Solutions maintained at 37° C.±0.5° continuously perfused the gap compartments. The rear chamber contained isotonic potassium chloride solution. The drugs were added to a Tris-Tyrode solution passing the tip of the muscle. […] It was adjusted to pH 7.4 with trismaleate and HCl before use and gassed with 100% oxygen. Isotonic sucrose solution isolated the rear from the tip to enable current- and voltage-clamping.
# (§3) The force of contraction was measured with a strain gauge transducer before and after the addition of the test compounds to the medium. The percent reduction in maximum force of contraction from the control was calculated.
# [5] = as above; assay type: cell-based; conditions: guinea pig, papillary muscle
# Protocol: as §1, §2, §3
# skin = assay: Skin temperature measurements within intracutaneous wheals; assay type: in vivo, man; conditions: Conc. 0.25%, HCl-salt, 10 minutes after injection
# Protocol: The mean value of 6 wheals for each substance forms the basis for the values. The control values, however, represent the mean value obtained from 4 different sites measured outside the wheals 90 degrees apart and 2 centimeters from the wheal's center.
# In the temperature measurements, an Oriel temperature apparatus* has been used. This is battery driven and is connected to a detector (diameter, 2.5 mm) and has an accuracy of ±0.1° C. The temperature of the skin is measured by pressing the detector against the skin with a pressure of 100 grams. It is retained against the skin until a constant temperature is obtained.
# In Table 4, T1 is the measurement obtained at the center of the wheal, and T2 is the average of four measurements taken 90 degrees apart outside of the wheal and within 2 centimeters of the wheal's center.
# pigs = assay: Intracoronary administration in anesthetized pigs; assay type: in vivo, pig
# Protocol: Eight pigs weighing around 50 kg were anesthetized with a continuous infusion of pentobarbital at 600 mg/h. Ventilation was established via a tracheotomy with 30% oxygen in nitrogen and normoventilation by a Siemens-Elema Servoventilator 900B. The following catheters were inserted after cutdown: Left ventricular, aortic, pulmonary arterial, great cardiac venous, left anterior descending coronary, arterial and central venous. […] The corresponding doses for bupivaciane were 0.25, 0.5, 1, 2 and 4 mg and for LEA 0.33, 0.66, 1.33, 2.66 and 5.33 mg. The injection rate was adjusted according to the preinjection coronary blood flow. Each series of drug injections was preceded by a placebo infusion. Total hemodynamic and electrocardiographic recovery was allowed between doses and there was a one hour resting period between drugs.
# Central pressures, left ventricular dP/dT and a complete chest lead ECG were recorded continuously. Cardiac output and great cardiac venous blood flow were determined before and directly after each dose of the local anesthetic agent.
# [6] = test system: guinea pig papillary muscle; conditions: Block and Covino, 1981, Courtney, 1984, Kotelko et al.; cited from earlier work
# [7] = biological target: T1, guinea-pig papillary muscle sodium channels (Cavia porcellus, UniProt H0V4Z8); assay: Action on guinea-pig papillary muscle sodium channels (Vmax, recovery from block); assay type: cell-based
# T1 construct: Vmax of action potential as measure of sodium current
# Description: Depression of cardiac conduction appears to be one of the primary mechanisms underlying local anesthetic cardiotoxicity. Depression of conduction by local anesthetics in both nerve and cardiac tissue results from a block of sodium channels. Furthermore, the degree of sodium channel block by local anesthetics is dependent upon the state of the sodium channel. […] Consequently, a block of sodium channels develops during the upstroke and plateau of the action potential and dissipates during the diastolic interval between beats. Since the effect of a local anesthetic is both state and time dependent, changes in both heart rate and diastolic membrane potential may alter drug action substantially.
# Guinea pig papillary tests were carried out according to the recommendation of the "Report of the Subcommittee on Cardiotoxicity of Local Anesthetics" (Leroy D. Vandam, M.D., chairman). Guinea pig papillary muscle excised from the right ventricle were mounted in a single sucrose gap apparatus (Arlock & Katzune, 1985). Solutions maintained at 37° C.±0.5° continuously perfused the gap compartments. The rear chamber contained isotonic potassium chloride solution. The drugs were added to a Tris-Tyrode solution passing the tip of the muscle. The Tris-Tyrode solution contained (mM): NaCl, 145; KCl, 4; CaCl2, 1.2; MgCl2, 1.05; glucose, 5.5 Tris maleate, 5. It was adjusted to pH 7.4 with trismaleate and HCl before use and gassed with 100% oxygen. Isotonic sucrose solution isolated the rear from the tip to enable current- and voltage-clamping.
# The muscles were depolarized with long current pulses (1500 msec). These current steps can induce automaticity or DIA (depolarization induced automaticity). The steps were adjusted so the preparations were depolarized to from -50 to -30 mV since that is in that range that calcium current conductance is initiated.
# The results represent the mean from representative experiments. In the absence of drug, Vmax (maximum upstroke velocity of the action potential) recovers from inactivation with an exponential time constant of less that 30 msec at -90 mV (Gettes and Reuter, 1974). […] The time constant of this recovery process is different for channels blocked by different drugs.
# conscious rats = assay: Heart-toxicity in conscious rats (ECG); assay type: in vivo, Male Sprague Dawley rats; conditions: rat, in vivo
# Protocol: Male Sprague Dawley rats weighing 290-360 grams were prepared with intravenous catheters under local anesthesia using prilocaine (Citanest*) one hour before experiments. Rapid intravenous bolus injections over 5.0 seconds were given to groups of 8 rats, with a single injection to each animal. […] The ECG was recorded on a Mingograf 34. Convulsions were recorded manually with an electronic marker on one channel of the Mingograf. Only "primary" arrhythmias occurring during the first 60 seconds have been analyzed to avoid confusion with late arrhythmias occurring secondary to respiratory arrest or cardiovascular collapse.
# in vivo = conditions: mouse, iv, 50% mortality of mice, racemate
# [8] = test system: peripheral nerve endings of the epidermis; assay: Intracutaneous wheals, infiltration anesthesia on forearms of man; assay type: in vivo; conditions: Conc. 0.25%; 12 healthy volunteers, pinprick
# Description: By use of intracutaneous wheals it is possible to measure the analgesic effect of an anesthetic on the peripheral nerve endings of the epidermis.
# This technique gives information about:
# (1) The duration of anesthesia.
# ^1 Infiltration anesthesia on forearms of man. The test solutions wer
# injected intracutaneously on the dorsum of the forearms of 12 healthy
# volunteers, 20-25 years old. Three wheals were made on each arm in a
# rotating system in a doublebind fashion. The local anesthetic effect was
# tested using a pinprick technique. The "duration of anesthesia" was
# defined as the time during which none out of six pinpricks into the wheal
# was felt. The method has been described by Dhuner et al. (1972). […]
smiles,measurement,setting,value
"CCCCCN1CCCCC1C(=O)Nc1c(C)cccc1C (centres unmarked) [5 R, N--n-pentylpipecolic acid-2,6-xylidide]",solubility in water,[1],slightly soluble
same,tissue irritation,tissue [2],irritating
same,tissue irritation,tissue [2]; listed as 5,too irritating against tissue
"CCCCN1CCCCC1C(=O)Nc1c(C)cccc1C (racemic) [4 R, N--n-butylpipecolic acid-2,6-xylidide]","Analgesia-duration, finger blockade",ulnar volar nerves,388 ± 50 min
same,Frequency (successful anesthesias of total performed),ulnar volar nerves,15/20
same,"Time of onset, finger blockade",ulnar volar nerves; time from injection to complete analgesia,9 ± 2 min
same,Tissue toxicity limits in %,tissue [3],0.75%
same,effect on force of contraction/contractility,[4],pronounced depressant action
same,inhibition at 5 µM,[5],45.1%
same,inhibition at 10 µM,[5],41.7%
same,Temperature Difference (T1 wheal vs T2 controls),skin,-0.6 °C
same,T1 Intracutaneous Wheal temperature,skin; mean of 6 wheals,31.5 °C
same,death in ventricular fibrillation,"pigs; 4 mg intracoronary, eight pigs",Two animals died in ventricular fibrillation
same,"ventricular fibrillation (VF), time after injection","pigs; 4 mg intracoronary, listed as bupivacaine",≤ 33 s
same,sudden cardiac collapse,pigs; intracoronary,occurred
same,negative inotropic effect,[6],potent negative inotropic effect
same,affinity for the activated and inactivated channels,[7],very high affinity
same,recovery to 90% of drug-blocked channels,[7]; -90 mV,3561 ms
same,potency on cardiac sodium channels,[7]; equimolar concentrations,highest
same,recovery from block,[7]; especially at hyperpolarized levels (-100--120 mV),very slow
same,potency to induce atrioventricular conduction disturbances,conscious rats,most potent
same,LD50,in vivo,7.8 mg/kg
same,"Analgesia-duration, intracutaneous wheals",[8],118 ± 15 min
